Data set [1] is described as follows: Induction of anion transport in NaCl loaded POPC liposomes assessed transmembrane permeability by measuring chloride efflux by ion selective electrode.
Data set [2] in a line: 1-Octanol/phosphate buffer partition coefficient, logP of the compound at pH 7.40. Conditions: pH 7.4. The format is physicochemical.
Data set [3] in a line: Oral bioavailability in rat. Conditions: in vivo. Type of data set: ADME, organism-based.
A short description of data set [4]: Permeability coefficient of the compound in human Caco-2 cells. The format is ADME, cell-based. As to conditions: read-out: Kp. Background: Passage across Caco-2 layers is used to estimate intestinal permeability.
Data set [5] is described as follows: Dissociation constant, pKa of compound. Type of data set: physicochemical.

On to `O=c1c(Nc2cc(C(F)(F)F)cc(C(F)(F)F)c2)c(Nc2cc(C(F)(F)F)cc(C(F)(F)F)c2)c1=O`, for which, in data set [1], the EC50 was 0.01 mol%.
In turn, `Cc1cccc(Nc2ccncc2S(=O)(=O)NC(=S)NC(C)C)c1` yielded a logD in data set [2] of 0.61.
For the compound `COC(=O)C1=C(C)NC(C)=C(C(=O)OC)C1c1cccc(NC(=O)NCCCN2CCC(c3cccc(OC)c3)CC2)c1`, in data set [3], the bioavailability was 0.1%. Moreover, in data set [4], the Papp came to 1.9 ×10⁻⁶ cm/s.
As for `FC(F)(F)c1cc(NC(=S)Nc2cc(C(F)(F)F)cc(C(F)(F)F)c2)cc(C(F)(F)F)c1`, the EC50 in data set [1] is recorded as 0.16 mol%.
Take `COC(=O)C1=C(C)NC(C)=C(C(=O)OC)C1c1cccc(N/C(=N/C#N)NCCCN2CCC(c3cccc(OC)c3)CC2)c1`: in data set [4], the Papp amounted to 4.3 ×10⁻⁶ cm/s.
The compound `Cc1cccc(Nc2ccncc2S(=O)(=O)NC(=NC#N)NC(C)C)c1` returned a logD in data set [2] of 0.86. This compound also registered a pKa in data set [5] of 6.
Take `O=C(Nc1cc(C(F)(F)F)cc(C(F)(F)F)c1)Nc1cc(C(F)(F)F)cc(C(F)(F)F)c1`: in data set [1], the EC50 was 0.3 mol%.
As to `Cc1cccc(Nc2ccncc2S(=O)(=O)N/C(=C/[N+](=O)[O-])NC(C)C)c1`, the logD in data set [2] stood at 1.12.
Consider `Cc1cccc(Nc2ccncc2S(=O)(=O)NC(=O)NC(C)C)c1` [TORSEMIDE], for which the logD in data set [2] is 0.45. In addition, the pKa in data set [5] was found to be 6.68.

As usually defined, the logD is the decadic logarithm of the distribution of all forms, ionised or not, between an organic phase and buffer at a given pH. A higher logD goes with higher lipophilicity. The bioavailability is dose-corrected exposure relative to a reference, in per cent. A higher bioavailability goes with good availability. The pKa is the negative logarithm of the acid dissociation constant.

Source of the values: ChEMBL document CHEMBL5223063, “Recent advances in urea- and thiourea-containing compounds: focus on innovative approaches in medicinal chemistry and organic synthesis” (RSC Med Chem, 2021).
